In patent US11078216B2, “Bisaryl amides as NRF2 activators” (GLAXOSMITHKLINE INTELLECTUAL PROPERTY DEVELOPMENT LIMITED, priority 2016, dated 2021):

These compounds were tested on NRF2 (NQO1 activity as marker for NRF2 activation), BEAS-2B cells (assay: BEAS-2B NQO1 MTT Assay). Conditions: Homo sapiens, EC50 of NQO1 specific activity induction, 48 hours incubation, read-out: EC50.
Type: cell-based
Procedure, shortened: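 BEAS-2B cells were exposed to compound for 48 h at 37° C, 5% CO2, then lysed. NQO1 activity was measured kinetically by MTT reduction at 570 nm over 30 minutes; EC50 came from 3-parameter fit of Delta OD/min versus log concentration.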

`CC[C@H]1Cc2ccccc2S(=O)(=O)N(Cc2cc([C@H](CC(=O)Nc3cccnc3)c3ccc4c(nnn4CC)c3F)ccc2C)C1` [Example 80, (S)-3-(3-(((S)-4-Ethyl-1,1-dioxido-4,5-dihydrobenzo[f][1,2]thiazepin-2(3H)-yl)methyl)-4-methylphenyl)-3-(1-ethyl-4-fluoro-1H-benzo[d][1,2,3]triazol-5-yl)-N-(pyridin-3-yl)propanamide] and `CC[C@H]1Cc2ccccc2S(=O)(=O)N(Cc2cc([C@H](CC(=O)NCCNC)c3ccc4c(nnn4CC)c3F)ccc2C)C1` [Example 81, (S)-3-(3-(((S)-4-Ethyl-1,1-dioxido-4,5-dihydrobenzo[f][1,2]thiazepin-2(3H)-yl)methyl)-4-methylphenyl)-3-(1-ethyl-4-fluoro-1H-benzo[d][1,2,3]triazol-5-yl)-N-(2-(methylamino)ethyl)propanamide] fall in the same range of EC50: 0.01 to 0.1 µM for the first, 0.01 to 0.1 µM for the second.

`CCCn1cc(CC[C@@H](c2ccc(C)c(CN3C[C@@H](CC)Oc4ccccc4S3(=O)=O)c2)C(C)(C)C(=O)Nc2cccnc2)nn1` [Example 82, (S)-3-(3-(((R)-4-Ethyl-1,1-dioxido-3,4-dihydro-2H-benzo[b][1,4,5]oxathiazepin-2-yl)methyl)-4-methylphenyl)-2,2-dimethyl-5-(1-propyl-1H-1,2,3-triazol-4-yl)-N-(pyridin-3-yl)pentanamide] and `CCCn1cc(CC[C@H](c2ccc(C)c(CN3C[C@@H](CC)Oc4ccccc4S3(=O)=O)c2)C(C)(C)C(=O)Nc2cccnc2)nn1` [Example 83, (R)-3-(3-(((R)-4-Ethyl-1,1-dioxido-3,4-dihydro-2H-benzo[b][1,4,5]oxathiazepin-2-yl)methyl)-4-methylphenyl)-2,2-dimethyl-5-(1-propyl-1H-1,2,3-triazol-4-yl)-N-(pyridin-3-yl)pentanamide] fall in the same range of EC50: 0.1 to 1 µM for the first, 0.1 to 1 µM for the second.

`CC[C@@H]1CN(Cc2cc([C@@H](c3ccc4c(nnn4C)c3C)C(C)(C)C(=O)Nc3cccnc3)ccc2Cl)S(=O)(=O)c2ccccc2O1` [Example 84, (S)-3-(4-Chloro-3-(((R)-4-ethyl-1,1-dioxido-3,4-dihydro-2H-benzo[b][1,4,5]oxathiazepin-2-yl)methyl)phenyl)-3-(1,4-dimethyl-1H-benzo[d][1,2,3]triazol-5-yl)-2,2-dimethyl-N-(pyridin-3-yl)propanamide] and `CCCn1nnc2c(C)c([C@H](c3ccc(C)c(CN4C[C@@H](CC)Oc5ccccc5S4(=O)=O)c3)C(C)(C)C(=O)Nc3cccnc3)ccc21` [Example 85, (S)-3-(3-(((R)-4-Ethyl-1,1-dioxido-3,4-dihydro-2H-benzo[b][1,4,5]oxathiazepin-2-yl)methyl)-4-methylphenyl)-2,2-dimethyl-3-(4-methyl-1-propyl-1H-benzo[d][1,2,3]triazol-5-yl)-N-(pyridin-3-yl)propanamide] fall in the same range of EC50: 0.01 to 0.1 µM for the first, 0.01 to 0.1 µM for the second.

`CC[C@@H]1CN(Cc2cc([C@@H](c3ccc4c(nnn4CC)c3C)C(C)(C)C(=O)Nc3cnc(Cl)nc3)ccc2C)S(=O)(=O)c2cccnc2O1` [Example 86, (S)—N-(2-Chloropyrimidin-5-yl)-3-(3-(((R)-4-ethyl-1,1-dioxido-3,4-dihydro-2H-pyrido[2,3-b][1,4,5]oxathiazepin-2-yl)methyl)-4-methylphenyl)-3-(1-ethyl-4-methyl-1H-benzo[d][1,2,3]triazol-5-yl)-2,2-dimethylpropanamide] and `CC[C@@H]1CN(Cc2cc([C@@H](c3ccc4c(nnn4CC)c3C)C(C)(C)C(=O)Nc3cncnc3)ccc2C)S(=O)(=O)c2ccccc2O1` [Example 91, (S)-3-(3-(((R)-4-Ethyl-1,1-dioxido-3,4-dihydro-2H-benzo[b][1,4,5]oxathiazepin-2-yl)methyl)-4-methylphenyl)-3-(1-ethyl-4-methyl-1H-benzo[d][1,2,3]triazol-5-yl)-2,2-dimethyl-N-(pyrimidin-5-yl)propanamide] fall in the same range of EC50: 0.001 to 0.01 µM for the first, 0.001 to 0.01 µM for the second.

First: CC[C@@H]1CN(Cc2cc([C@@H](c3ccc4c(nnn4CC)c3C)C(C)(C)C(N)=O)ccc2C)S(=O)(=O)c2ccccc2O1 [Example 87, (S)-3-(3-(((R)-4-Ethyl-1,1-dioxido-3,4-dihydro-2H-benzo[b][1,4,5]oxathiazepin-2-yl)methyl)-4-methylphenyl)-3-(1-ethyl-4-methyl-1H-benzo[d][1,2,3]triazol-5-yl)-2,2-dimethylpropanamide]
Second: CC[C@@H]1CN(Cc2cc([C@@H](c3ccc4c(nnn4CC)c3C)C(C)(C)NC(N)=O)ccc2C)S(=O)(=O)c2ccccc2O1 [Example 99, 1-((S)-1-(3-(((R)-4-ethyl-1,1-dioxido-3,4-dihydro-2H-benzo[b][1,4,5]oxathiazepin-2-yl)methyl)-4-methylphenyl)-1-(1-ethyl-4-methyl-1H-benzo[d][1,2,3]triazol-5-yl)-2-methylpropan-2-yl)urea]
The EC50 of the first is lower: 0.001 to 0.01 µM for the first, 0.1 to 1 µM for the second. The first is the more potent here.

`CC[C@H]1Cc2ccc(C(F)(F)F)cc2S(=O)(=O)N(Cc2cc([C@@H](c3ccc4c(nnn4CC)c3C)C(C)(C)C(N)=O)ccc2C)C1` [Example 88, (S)-3-(3-(((S)-4-ethyl-1,1-dioxido-8-(trifluoromethyl)-4,5-dihydrobenzo[f][1,2]thiazepin-2(3H)-yl)methyl)-4-methylphenyl)-3-(1-ethyl-4-methyl-1H-benzo[d][1,2,3]triazol-5-yl)-2,2-dimethylpropanamide] and `CC[C@H]1Cc2ccc(C(F)(F)F)cc2S(=O)(=O)N(Cc2cc([C@@H](c3ccc4c(nnn4CC)c3C)C(C)(C)C(=O)Nc3cncnc3)ccc2C)C1` [Example 92, (S)-3-(3-(((S)-4-Ethyl-1,1-dioxido-8-(trifluoromethyl)-4,5-dihydrobenzo[f][1,2]thiazepin-2(3H)-yl)methyl)-4-methylphenyl)-3-(1-ethyl-4-methyl-1H-benzo[d][1,2,3]triazol-5-yl)-2,2-dimethyl-N-(pyrimidin-5-yl)propanamide] fall in the same range of EC50: 0.001 to 0.01 µM for the first, 0.001 to 0.01 µM for the second.

First: CC[C@@H]1CN(Cc2cc([C@@H](c3ccc4c(nnn4C)c3C)C(C)(C)C(N)=O)ccc2Cl)S(=O)(=O)c2ccccc2O1 [Example 89, (S)-3-(4-chloro-3-(((R)-4-ethyl-1,1-dioxido-3,4-dihydro-2H-benzo[b][1,4,5]oxathiazepin-2-yl)methyl)phenyl)-3-(1,4-dimethyl-1H-benzo[d][1,2,3]triazol-5-yl)-2,2-dimethylpropanamide]
Second: CC[C@@H]1CN(Cc2cc([C@@H](c3ccc4c(nnn4CC)c3C)C(C)(C)C(=O)Nc3cncnc3)ccc2C)S(=O)(=O)c2ccc(Br)cc2O1 [Example 97, (S)-3-(3-(((R)-7-Bromo-4-ethyl-1,1-dioxido-3,4-dihydro-2H-benzo[b][1,4,5]oxathi-azepin-2-yl)methyl)-4-methylphenyl)-3-(1-ethyl-4-methyl-1H-benzo[d][1,2,3]triazol-5-yl)-2,2-dimethyl-N-(pyrimidin-5-yl)propanamide]
The EC50 of the first is higher: 0.01 to 0.1 µM for the first, 0.001 to 0.01 µM for the second. The second is the more potent here.

Compared with `CC[C@H]1Cc2ccc(C(F)(F)F)cc2S(=O)(=O)N(Cc2cc([C@@H](OCc3cn(CC)nn3)C(C)(C)C(N)=O)ccc2C)C1` [Example 90, (R)-3-(3-(((S)-4-ethyl-1,1-dioxido-8-(trifluoromethyl)-4,5-dihydrobenzo[f][1,2]thiazepin-2(3H)-yl)methyl)-4-methylphenyl)-3-((1-ethyl-1H-1,2,3-triazol-4-yl)methoxy)-2,2-dimethylpropanamide], `CCn1nnc2c(C)c([C@H](c3ccc(C)c(CN4C[C@@H](C)Cc5cc(C(F)(F)F)ccc5S4(=O)=O)c3)C(C)(C)C(=O)Nc3cncnc3)ccc21` [Example 94, (S)-3-(1-Ethyl-4-methyl-1H-benzo[d][1,2,3]triazol-5-yl)-2,2-dimethyl-3-(4-methyl-3-(((S)-4-methyl-1,1-dioxido-7-(trifluoromethyl)-4,5-dihydrobenzo[f][1,2]thiazepin-2(3H)-yl)methyl)phenyl)-N-(pyrimidin-5-yl)propanamide] is lower in EC50: 0.1 to 1 µM for the first, 0.001 to 0.01 µM for the second. The second is the more potent here.

`CC[C@H]1Cc2ccccc2S(=O)(=O)N(Cc2cc([C@@H](c3ccc4c(nnn4CC)c3C)C(C)(C)C(=O)Nc3cncnc3)ccc2C)C1` [Example 93, (S)-3-(3-(((S)-4-Ethyl-1,1-dioxido-4,5-dihydrobenzo[f][1,2]thiazepin-2(3H)-yl)methyl)-4-methylphenyl)-3-(1-ethyl-4-methyl-1H-benzo[d][1,2,3]triazol-5-yl)-2,2-dimethyl-N-(pyrimidin-5-yl)propanamide] and `CC[C@H]1Cc2ncccc2S(=O)(=O)N(Cc2cc([C@@H](c3ccc4c(nnn4CC)c3C)C(C)(C)C(=O)Nc3cncnc3)ccc2C)C1` [Example 95, (S)-3-(3-(((S)-4-Ethyl-1,1-dioxido-4,5-dihydropyrido[2,3-f][1,2]thiazepin-2(3H)-yl)methyl)-4-methylphenyl)-3-(1-ethyl-4-methyl-1H-benzo[d][1,2,3]triazol-5-yl)-2,2-dimethyl-N-(pyrimidin-5-yl)propanamide] fall in the same range of EC50: 0.001 to 0.01 µM for the first, 0.001 to 0.01 µM for the second.

`CC[C@@H]1CN(Cc2cc([C@@H](c3ccc4c(nnn4CC)c3C)C(C)(C)C(=O)Nc3cncnc3)ccc2C)S(=O)(=O)c2cnccc2O1` [Example 96, (S)-3-(3-(((R)-4-Ethyl-1,1-dioxido-3,4-dihydro-2H-pyrido[4,3-b][1,4,5]oxathiazepin-2-yl)methyl)-4-methylphenyl)-3-(1-ethyl-4-methyl-1H-benzo[d][1,2,3]triazol-5-yl)-2,2-dimethyl-N-(pyrimidin-5-yl)propanamide] and `CC[C@@H]1CN(Cc2cc([C@@H](c3ccc4c(nnn4CC)c3C)C(C)(C)C(=O)Nc3cncnc3)ccc2C)S(=O)(=O)c2cc(Br)ccc2O1` [Example 98, (S)-3-(3-(((R)-8-Bromo-4-ethyl-1,1-dioxido-3,4-dihydro-2H-benzo[b][1,4,5]oxathi-azepin-2-yl)methyl)-4-methylphenyl)-3-(1-ethyl-4-methyl-1H-benzo[d][1,2,3]triazol-5-yl)-2,2-dimethyl-N-(pyrimidin-5-yl)propanamide] fall in the same range of EC50: 0.001 to 0.01 µM for the first, 0.001 to 0.01 µM for the second.

`CC[C@@H]1CN(Cc2cc([C@@H](c3ccc4c(nnn4C)c3C)C(C)(C)C(=O)NC3CCOC3)ccc2C)Cc2cnccc2O1` (stereo partly drawn) [Example 100, (3S)-3-(1,4-Dimethyl-1H-benzo[d][1,2,3]triazol-5-yl)-3-(3-(((R)-2-ethyl-2,3-dihydropyrido[3,44][1,4]oxazepin-4(5H)-yl)methyl)-4-methylphenyl)-2,2-dimethyl-N-(tetrahydrofuran-3-yl)propanamide] was tested, and the EC50 was 0.1 to 1 µM.
